Entries after “also recorded” stand apart in the source; their conditions may differ.
Assays:
[1] = system: rat model of focal cerebral ischemia (tMCAO); test: Neurological function after transient middle cerebral artery occlusion (Bederson, NDS, EBST); type: in vivo; conditions: for Neurological Deficit Score (NDS), Dunn's test: 135 mg/kg/d p.o.
Experimental: Evaluating the effect of Sigma receptor agonists in a rat model of focal cerebral ischemia. Rats were anesthetized with 5% isoflurane in oxygen and maintained at ˜2% through a nosecone. Core temperature was maintained with an infrared heating pad controlled by a rectal probe. Transient middle cerebral artery occlusion (tMCAO) was performed as previously described (Oppong-Gyebi et al., 2022). Briefly, a midline incision was made from the neck to the sternum. The left common carotid artery and bifurcation was mobilized, and a silicon-coated suture (Doccol, Sharon MA) was inserted through the external carotid artery into the internal carotid artery to reach the origin of the MCA at the base of the brain. The incision was closed, and rats were allowed to awaken so that successful occlusion could be assessed. Rats not displaying hemiparesis immediately post-surgery were excluded from the study. After 85-90 minutes occlusion, rats were anesthetized, and the suture was withdrawn to allow reperfusion. Rats were injected subcutaneously with 5 ml saline bilaterally to provide hydration during recovery. On the day following tMCAO, rats were assessed for persistent signs of stroke.
Only rats displaying hemiparesis immediately post-surgery were included in the study. Rats with a Bederson score of 0 or <50% contralateral bias on the elevated body swing test (EBST) (Borlongan and Sanberg, 1995) on Day 1 after tMCAO were excluded from the study. Animals that became moribund or died within 24 hours of tMCAO were excluded from the study.
Two days before tMCAO rats were trained to lick 5% sucrose from a 1 ml syringe. After behavioral assessment on Day 1 after tMCAO, rats were randomly assigned to 4 groups in a blinded fashion. Groups included sucrose Vehicle, or 45, 68 or 135 mg/kg oxeladin. Oxeladin was prepared in 5% sucrose and provided to rats from the end of a 1 ml syringe. Starting 48 hours after stroke, rats were administered treatments daily from day 3 to day 14. On days 3-14 rats were injected i.p. with 50 mg/kg bromodeoxyuridine (BrdU; Fisher Bioreagents). At the conclusion of the study, rats were euthanized under deep isoflurane anesthesia. Rats were transcardially perfused with cold saline and either decapitated for brain collection and flash freezing of brain tissue or transcardially perfused with 4% formaldehyde for immunohistochemical studies.
On days 1, 3, 7, and 14 after tMCAO, rats underwent a series of behavioral tests by a treatment blinded observer. All tests were performed in a room dimly lit with red light. Rats were assessed by the Bederson test (Bederson et al., 1986), and an 11-point Neurological Deficit test as previously described (Oppong-Gyebi et al., 2022). The elevated body swing test (EBST) was performed in an open field with 30 seconds between each of 20 lifts by the base of the tail (Borlongan and Sanberg, 1995). The EBST was scored as percent of nose swing to the contralateral side to the tMCAO.
The observer scored the rats using the Bederson test, which evaluates global neurological function and grades rodents on a scale of 0-5. Grade 0 (no defects) is assigned if animals extend both forelimbs toward the floor when suspended above the floor. Grade 1 (mild defects) is given when animals show forelimb flexion without any other abnormality. Grade 2 (modest defects) is given when animals display forelimb flexion and decreased resistance to lateral push toward the paretic side. Animals further showing circling behavior are scored Grade 3 (severe defects).
The observer also scored the rats using the Elevated Body Swing Test (EBST) in which rats lifted by the tail and held vertically swing their heads to the left or to the right. Whereas healthy animals on a group level are likely to swing approximately 50% to either side, animals with a unilateral cerebral lesion, e.g. ischemic stroke, should present with a dominant/biased swing direction.

[2] = Pharmacokinetics of per oral oxeladin in plasma and brain; type: in vivo, rat; conditions: for time after dosing at which detected in brain / time after dosing at which detected in plasma: rat, 135 mg/kg
Experimental: Evaluating the pharmacokinetics of Sigma receptor agonists. […] Whole blood was harvested into EDTA coated tubes at 30, 60, 120, 240, 720, and 1440 minutes from rats following euthanasia by CO2 inhalation. Plasma was processed from whole blood by centrifugation for 10 min at 10,000 rpm and frozen at −80° C. until assayed. The brains were collected, weighed, snap frozen in liquid nitrogen, and stored at −80° C. until processed.
For standards, 98 μl blank plasma was added to an Eppendorf tube spiked with 2 μl of […] (IS). For QCs, add 98.8 μl blank plasma was added to an Eppendorf tube spiked with 1.2 μl of IS. 100 μl plasma was mixed with 200 μl of acetonitrile containing 0.15% formic acid and 37.5 ng/ml IS (IS final conc.=25 ng/ml), and 100 microliters brain homogenized solution was mixed with 200 microliters of acetonitrile containing 0.15% formic acid and 60 ng/ml IS (IS final conc.=40 ng/ml). The samples were vortexed 15 sec, incubated at room temp for 10 min and spun 2×13,200 rpm in a standard microcentrifuge. The supernatant was then analyzed by LC/MS/MS (QTRAP® 3200) according to the following parameters:
Ion Source/Gas Parameters: CUR=25, CAD=medium, IS=5000, TEM=700, GS1=70, GS2=70.
Buffer A: Water+0.1% formic acid; Buffer B: ACN+0.1% formic acid; flow rate 1.5 ml/min; column Agilent Eclipse XDB-C18 column, 5 micron packing 50×4.6 mm size; 0-1.5 min 3% B, 1.5-2.0 min gradient to 100% B, 2.0-3.5 min 100% B, 3.5-3.6 min gradient to 3% B, 3.6-4.5 3% B. IS: n-benzylbenzamide (Sigma-Aldrich, lot #02914LH, in ACN, transition 212.1 to 91.1); Compound transition 336.127/100.1.

[3] = molecular target: T1, human Sigma-2 receptor (S2R) (Homo sapiens, UniProt Q5BJF2); test: Radioligand competition binding at Sigma-2 receptor ([3H]-DTG, untransfected MCF-7); conditions: displacement of 2.5 nM [3H]DTG, untransfected MCF-7 cells; average of 2-3 experiments ± SEM; read-out: S2R affinity (Ki)
T1 construct: these cells express the endogenous S2R; endogenous in cells; host or cells: untransfected human MCF-7 cells
Experimental: Ki values were calculated from IC50 values using the Cheng-Prusoff equation.

[4] = 68 mg/kg/d p.o. starting 48 hours after tMCAO, days 7 and 14
[5] = 135 mg/kg p.o., listed as oxeladin

T1 sequence (Q5BJF2 whole entry): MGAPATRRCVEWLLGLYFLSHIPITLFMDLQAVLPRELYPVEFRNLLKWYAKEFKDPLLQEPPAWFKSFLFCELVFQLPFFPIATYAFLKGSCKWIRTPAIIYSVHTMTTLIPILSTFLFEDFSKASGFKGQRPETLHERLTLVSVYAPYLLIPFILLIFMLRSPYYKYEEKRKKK

## CCN(CC)CCOCCOC(=O)C(CC)(CC)c1ccccc1 [Oxeladin]
[1]; [4]
  Bederson score vs Vehicle: significantly improved
  Elevated Body Swing Test (EBST) vs Vehicle: significantly improved
[1]; 135 mg/kg/d p.o. starting 48 hours after tMCAO, days 3, 7 and 14
  Bederson score vs Vehicle: significant improvements; also recorded: significantly improved
[1]; 135 mg/kg/d p.o. starting 48 hours after tMCAO, days 3 and 7
  Neurological Deficit Score (NDS) vs Vehicle: significantly improved
[1]; 135 mg/kg/d p.o. starting 48 hours after tMCAO, days 7 and 14
  Elevated Body Swing Test (EBST) vs Vehicle: not 135 mg/kg showed improvement
[1]; day 3 (P=0.072)
  Neurological Deficit Score (NDS), Dunn's test: trend for improvement
[1]; day 7 (P=0.028)
  Neurological Deficit Score (NDS), Dunn's test: significant improvements
[1]; overall conclusion, p.o. dosing
  functional recovery after tMCAO: improves functional recovery
[2]; rat brain, 135 mg/kg oral gavage (figure legend)
  half-life, brain: greater than 4 hours
[2]; rat brain, 135 mg/kg p.o.
  AUClast, brain: 423726 ng·min/g
  Terminal T1/2 (terminal elimination half-life), brain: 5.32 h
  Tmax (time to obtain maximum concentration), brain: 0.5 h
[2]; rat plasma, 135 mg/kg oral gavage (figure legend)
  half-life, plasma: greater than 4 hours
[2]; rat plasma, 135 mg/kg p.o.
  AUClast, plasma: 122293 ng·min/mL
  Terminal T1/2 (terminal elimination half-life), plasma: 4.15 h
  Tmax (time to obtain maximum concentration), plasma: 0.5 h
[2]; 135 mg/kg p.o.
  time after dosing at which detected in brain: ≤ 30 min
  time after dosing at which detected in plasma: ≤ 30 min
[2]; [5]
  time after dosing at which detected in brain: 30 min
  time after dosing at which detected in plasma: 30 min
[3]
  Ki: 148 ± 64 nM

— US20250134902A1, “DRUG REPURPOSING FOR DELAYED TREATMENT OF ISCHEMIC STROKE” (UNIVESRITY OF NORTH TEXAS HEALTH SCIENCE CENTER, priority 2022, published 2025)
